Laboratory results as given in US11174298B2, “Preparation and use of ginsentides and ginsentide-like peptides” (priority 2016, dated 2021).

Tests used:
[1] = tested on: H9c2 cells; assay: MTT cell viability of H9c2 cells, co-treatment with DOX; assay type: cell-based, rat
Protocol: To identify whether ginsentides can attenuate DOX-induced cardiotoxicity in cardiomyocytes, cell viability after drug treatment was measured by MTT assay.
After 24 h co-treatment of DOX with ginsentides, the viability of H9c2 cells was enhanced by ˜20% compared to the DOX-alone treatment (FIG. 43.).

[2] = tested on: α1-adrenergic receptor; assay: Phenylephrine-induced aortic ring contraction, isometric tension, ex vivo; design: species or system rat; settings: thoracic aorta pre-contracted with phenylephrine (0.1 μM)
[3] = tested on: isolated thoracic aorta; assay: KCl-induced aortic ring contraction, isometric tension, ex vivo; design: species or system rat; settings: thoracic aorta pre-contracted with KCl (30 mM)
[4] = tested on: human endothelial cells (HUVEC-CS); assay: Cellular NO synthesis in HUVEC-CS (DAF-2 DA staining); assay type: cell-based
[5] = Heparin HPLC affinity column; assay type: binding
Source text: Heparin-binding properties of ginsentides using heparin HPLC affinity column.

| Compound | Protective effects on cardiomyocytes during DOX-treatment [1] | Relaxation of phenylephrine-induced aortic ring contraction [2] | Relaxation of KCl-induced contracted aortic ring [3] | Cellular NO release compared among ginsentides [4] | Retention in heparin HPLC affinity column [5] |
| --- | --- | --- | --- | --- | --- |
| CC(C)=CCC[C@](C)(O[C@@H]1O[C@H](CO[C@@H]2O[C@H](CO)[C@@H](O)[C@H](O)[C@H]2O)[C@@H](O)[C@H](O)[C@H]1O)[C@H]1CC[C@]2(C)[C@@H]1[C@H](O)C[C@@H]1[C@@]3(C)CC[C@H](O[C@@H]4O[C@H](CO)[C@@H](O)[C@H](O)[C@H]4O[C@@H]4O[C@H](CO)[C@@H](O)[C@H](O)[C@H]4O)C(C)(C)[C@@H]3CC[C@]12C [ginsenoside Rb1] | did not showed any protective effects | – | – | – | – |
| CC(C)=CCC[C@](C)(O[C@@H]1O[C@H](CO)[C@@H](O)[C@H](O)[C@H]1O)[C@H]1CC[C@]2(C)[C@@H]1[C@H](O)C[C@@H]1[C@@]3(C)CC[C@H](O)C(C)(C)[C@@H]3[C@@H](O[C@@H]3O[C@H](CO)[C@@H](O)[C@H](O)[C@H]3O[C@@H]3O[C@@H](C)[C@H](O)[C@@H](O)[C@H]3O)C[C@]12C [ginsenoside Re] | did not showed any protective effects | – | – | – | – |
| CC(C)=CCC[C@](C)(O[C@@H]1O[C@H](CO)[C@@H](O)[C@H](O)[C@H]1O)[C@H]1CC[C@]2(C)[C@@H]1[C@H](O)C[C@@H]1[C@@]3(C)CC[C@H](O)C(C)(C)[C@@H]3[C@@H](O[C@@H]3O[C@H](CO)[C@@H](O)[C@H](O)[C@H]3O)C[C@]12C [ginsenoside Rg1] | did not showed any protective effects | – | – | – | – |
| CISSGGWCGFD-LHGCCG--NCGCLV--GFCYGTGC- (CISSGGWCGFDLHGCCGNCGCLVGFCYGTGC; listed as Panax quinquefolius) [Ginsentide TP8] | – | relaxes phenylephrine-induced aortic ring contraction | not KCI-induced contracted aortic ring | comparable cellular NO release | – |
| CKSAGTWCGFD-PHGCCG--SCGCLV--GFCYGVSC- (CKSAGTWCGFDPHGCCGSCGCLVGFCYGVSC; Panax ginseng) [Ginsentide TP3] | – | relaxes phenylephrine-induced aortic ring contraction | not KCI-induced contracted aortic ring | comparable cellular NO release | retented in a heparin HPLC affinity column |
| CKSGGSWCGFD-PHGCCG--NCGCLV--GFCYGTGC- [Ginsentide TP9] | – | – | – | – | retented in a heparin HPLC affinity column |
